Assay results as given in patent US8580965B2, “Substituted sulfonamide compounds” (Gruenenthal GmbH, priority 2006, dated 2013).

Biological target: T1, human B1R receptor (bradykinin 1 receptor) (Homo sapiens, UniProt P46663)
T1 construct: host or cells: CHO K1 cells (hB1R cells)
T1 sequence (P46663 1-353): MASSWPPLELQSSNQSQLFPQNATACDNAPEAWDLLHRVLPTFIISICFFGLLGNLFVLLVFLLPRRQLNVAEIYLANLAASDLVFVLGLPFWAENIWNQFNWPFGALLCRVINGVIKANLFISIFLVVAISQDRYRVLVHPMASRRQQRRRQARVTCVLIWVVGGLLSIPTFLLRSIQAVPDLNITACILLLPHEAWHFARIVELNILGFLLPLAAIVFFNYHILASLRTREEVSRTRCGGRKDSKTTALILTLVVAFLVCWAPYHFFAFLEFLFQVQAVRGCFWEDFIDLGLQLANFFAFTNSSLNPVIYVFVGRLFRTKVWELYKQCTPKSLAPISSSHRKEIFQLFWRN
Experiment: FLIPR Ca2+ assay (Fluo-4) on CHO K1 cells stably transfected with the human B1R gene; % activation and % inhibition at 10 μM
Type: cell-based
Details: CHO-K1, test substance 10 μM; CHO K1 hB1R cells; Ca2+ inflow after 0.5 nM Lys-Des-Arg9-bradykinin; read-out: B1R antagonism, human [10 μM] % inhibition
Experimental: The agonistic or antagonistic action of substances can be quantified on the bradykinin receptor 1 (B1R) of the species human and rat with ectopically expressing cell lines (CHO K1 cells) and with the aid of a Ca^2+-sensitive dye (Fluo-4) using a fluorescent imaging plate reader (FLIPR). The indication in % activation is based on the Ca^2+ signal after addition of Lys-Des-Arg^9-bradykinin (0.5 nM) or Des-Arg^9-bradykinin (100 nM). Antagonists result in a suppression of the Ca^2+ influx following administration of the agonist. The % inhibition in comparison with the maximum achievable inhibition is indicated.
Functional Investigation on the Bradykinin 1 Receptor (B1R)
The agonistic or antagonistic action of substances can be determined on the bradykinin 1 receptor (B1R) of the human and rat species with the following assay. According to this assay, the Ca^2+ inflow through the channel is quantified with the aid of a Ca^2+-sensitive dyes (Fluo-4 type, Molecular Probes Europe BV, Leiden, The Netherlands) in a fluorescent imaging plate reader (FLIPR, Molecular Devices, Sunnyvale, USA).
Chinese Hamster Ovary cells (CHO K1 cells) which are stably transfected with the human B1R gene (hB1R cells, Euroscreen s.a., Gosselies, Belgium) or the B1R gene of the rat (rB1R cells, Axxam, Milan, Italy) are used. For functional investigations, these cells are plated-out on black 96-well plates with a clear base (BD Biosciences, Heidelberg, Germany) in a density of 20,000-25,000 cells/well. Overnight, the cells are incubated at 37° C. and 5% CO2 in culture medium (hB1R cells: Nutrient Mixture Ham's F12, Gibco Invitrogen GmbH, Karlsruhe, Germany; rB1R cells: D-MEM/F12, Gibco Invitrogen, Karlsruhe, Germany) with 10 vol. % FBS (foetal bovine serum, Gibco Invitrogen GmbH, Karlsruhe, Germany). On the following day, the cells are loaded with 2.13 μM Fluo-4 (Molecular Probes Europe BV, Leiden, The Netherlands) in HBSS buffer (Hank's buffered saline solution, Gibco Invitrogen GmbH, Karlsruhe, Germany) […] (Sigma-Aldrich, Taufkirchen, Germany) and 10 mM HEPES (Sigma-Aldrich, Taufkirchen, Germany) for 60 min at 37° C. The plates are subsequently washed 2× with HBSS buffer, and HBSS buffer which additionally contains 0.1% BSA (bovine serum albumin; Sigma-Aldrich, Taufkirchen, Germany), 5.6 mM glucose and 0.05% gelatine (Merck KGaA, Darmstadt, Germany) is added. After a further incubation of 20 minutes at room temperature, the plates are inserted into the FLIPR for Ca^2+ measurement. The Ca^2+-dependent fluorescence is measured here before and after addition of substances (λex=488 nm, λem=540 nm). The quantification is effected by measurement of the highest fluorescence intensity (FC, fluorescence counts) over time.
The FLIPR protocol comprises 2 additions of substance. Test substances (10 μM) are first pipetted on to the cells and the Ca^2+ inflow is compared with the control (hB1R: Lys-Des-Arg^9-bradykinin 0.5 nM; rB1R: Des-Arg^9-bradykinin 100 nM). The value in % activation based on the Ca^2+ signal after addition of Lys-Des-Arg^9-bradykinin (0.5 nM) or Des-Arg^9-bradykinin (100 nM) is obtained therefrom. After incubation for 10 minutes, 0.5 nM Lys-Des-Arg^9-bradykinin (hB1R) or 100 nM Des-Arg^9-bradykinin (rB1R) are applied and the inflow of Ca^2+ is likewise determined. Antagonists lead to a suppression of the Ca^2+ inflow. % inhibition compared with the maximum inhibition which can be achieved is calculated. The compounds show a good activity on the human and on the rat receptor. The following data were determined by way of example: […]

Compound | inhibition at 10 µM [%]
COc1cc(C)c(S(=O)(=O)N2CCN(CCOCC(=O)N3CCC(O)(c4cccnc4)CC3)CC2)c(C)c1C [Example 47, 1-(4′-hydroxy-3′,4′,5′,6′-tetrahydro-2′H-[3,4′]bipyridinyl-1′-yl)-2-{2-[4-(4-methoxy-2,3,6-trimethyl-phenylsulfonyl)-piperazin-1-yl]-ethoxy}-ethanone] | -3.95
COc1cc(C)c(S(=O)(=O)N2CCN(CCOCC(=O)N3CCC(O)(c4ccccn4)CC3)CC2)c(C)c1C [Example 48, 1-(4′-hydroxy-3′,4′,5′,6′-tetrahydro-2′H-[2,4′]bipyridinyl-1′-yl)-2-{2-[4-(4-methoxy-2,3,6-trimethyl-phenylsulfonyl)-piperazin-1-yl]-ethoxy}-ethanone] | -4.32
O=C(COCC1CCCCN1S(=O)(=O)c1ccc(Cl)cc1)N1CCC(O)(Cc2ccccc2)CC1 (stereo not drawn) [Example 53, 1-(4-benzyl-4-hydroxy-piperidin-1-yl)-2-[1-(4-chloro-phenylsulfonyl)-piperidin-2-ylmethoxy]-ethanone] | -11.4
O=C(COC1CCN(S(=O)(=O)c2ccccc2)CC1)N1CCC(O)(c2ccccn2)CC1 [Example 54, 2-(1-phenylsulfonyl-piperidin-4-yloxy)-1-(4′-hydroxy-3′,4′,5′,6′-tetrahydro-2′H-[2,4′]bipyridinyl-1′-yl)-ethanone] | -13.1
COc1cc(C)c(S(=O)(=O)N2CCCC(OCC(=O)N3CCC(O)(c4ccccn4)CC3)C2)c(C)c1C (stereo not drawn) [Example 55, 1-(4′-hydroxy-3′,4′,5′,6′-tetrahydro-2′H-[2,4′]bipyridinyl-1′-yl)-2-[1-(4-methoxy-2,3,6-trimethyl-phenylsulfonyl)-piperidin-3-yloxy]-ethanone] | -13.2
COc1ccc(S(=O)(=O)N2CCCC2COCC(=O)N2CCC(O)(Cc3ccccc3)CC2)cc1 (stereo not drawn) [Example 57, 1-(4-benzyl-4-hydroxy-piperidin-1-yl)-2-[1-(4-methoxy-phenylsulfonyl)-pyrrolidin-2-ylmethoxy]-ethanone] | -16.2
COc1ccc(S(=O)(=O)N2CCCCC2COCC(=O)N2CCC(O)(Cc3ccccc3)CC2)c(OC)c1 (stereo not drawn) [Example 60, 1-(4-benzyl-4-hydroxy-piperidin-1-yl)-2-[1-(2,4-dimethoxy-phenylsulfonyl)-piperidin-2-ylmethoxy]-ethanone] | -44
COc1cc(C)c(S(=O)(=O)N(C)CCCC(=O)N2CCC(O)(c3cccnc3)CC2)c(C)c1 [Example 114, N-(4-(4-hydroxy-4-(pyridin-3-yl)piperidin-1-yl)-4-oxobutyl)-4-methoxy-N,2,6-trimethylphenylsulfonamide] | 102
CN(CCCC(=O)N1CCC(O)(c2cccnc2)CC1)S(=O)(=O)c1ccc(Cl)cc1Cl [Example 116, 2,4-dichloro-N-(4-(4-hydroxy-4-(pyridin-3-yl)piperidin-1-yl)-4-oxobutyl)-N-methylphenylsulfonamide] | 91.2
COc1cc(C)c(S(=O)(=O)N2CCCCC2COCCC(=O)N2CCC(O)(Cc3ccccc3)CC2)c(C)c1 (stereo not drawn) [Example 179, 1-(4-benzyl-4-hydroxypiperidin-1-yl)-3-((1-(4-methoxy-2,6-dimethylphenylsulfonyl)piperidin-2-yl)methoxy)propan-1-one] | 61.5
COc1cc(C)c(S(=O)(=O)N2CCCCC2COCCC(=O)N2CCC(O)(c3ccc(Cl)c(C(F)(F)F)c3)CC2)c(C)c1 (stereo not drawn) [Example 180, 1-(4-(4-chloro-3-(trifluoromethyl)phenyl)-4-hydroxypiperidin-1-yl)-3-((1-(4-methoxy-2,6-dimethylphenylsulfonyl)piperidin-2-yl)methoxy)propan-1-one] | 39.9
COc1cc(C)c(S(=O)(=O)N2CCCCC2COCCC(=O)N2CCC(O)(c3ccc(Cl)cc3)CC2)c(C)c1 (stereo not drawn) [Example 181, 1-(4-(4-chlorophenyl)-4-hydroxypiperidin-1-yl)-3-((1-(4-methoxy-2,6-dimethylphenylsulfonyl)piperidin-2-yl)methoxy)propan-1-one] | 75.4
COc1cc(C)c(S(=O)(=O)N2CCCCC2COCCC(=O)N2CCC(O)(c3ccc(Br)cc3)CC2)c(C)c1 (stereo not drawn) [Example 182, 1-(4-(4-bromophenyl)-4-hydroxypiperidin-1-yl)-3-((1-(4-methoxy-2,6-dimethylphenylsulfonyl)piperidin-2-yl)methoxy)propan-1-one] | 80
COc1cc(C)c(S(=O)(=O)N2CCCCC2COCCC(=O)N2CCC(O)(c3ccccc3)CC2)c(C)c1 (stereo not drawn) [Example 183, 1-(4-hydroxy-4-phenylpiperidin-1-yl)-3-((1-(4-methoxy-2,6-dimethylphenylsulfonyl)piperidin-2-yl)methoxy)propan-1-one] | 68.2
COc1cc(C)c(S(=O)(=O)N2CCCC(OCCC(=O)N3CCC(O)(c4ccc(Cl)cc4)CC3)C2)c(C)c1 (stereo not drawn) [Example 184, 1-(4-(4-chlorophenyl)-4-hydroxypiperidin-1-yl)-3-(1-(4-methoxy-2,6-dimethylphenylsulfonyl)piperidin-3-yloxy)propan-1-one] | 56.1
COc1cc(C)c(S(=O)(=O)N2CCCC(OCCC(=O)N3CCC(O)(c4ccc(Br)cc4)CC3)C2)c(C)c1 (stereo not drawn) [Example 185, 1-(4-(4-bromophenyl)-4-hydroxypiperidin-1-yl)-3-(1-(4-methoxy-2,6-dimethylphenylsulfonyl)piperidin-3-yloxy)propan-1-one] | 54.6
COc1cc(C)c(S(=O)(=O)N2CCC(OCCC(=O)N3CCC(O)(c4ccc(Cl)cc4)CC3)C2)c(C)c1 (stereo not drawn) [Example 186, 1-(4-(4-chlorophenyl)-4-hydroxypiperidin-1-yl)-3-(1-(4-methoxy-2,6-dimethylphenylsulfonyl)pyrrolidin-3-yloxy)propan-1-one] | 99.8
COc1cc(C)c(S(=O)(=O)N2CCC(OCCC(=O)N3CCC(O)(c4ccc(Br)cc4)CC3)C2)c(C)c1 (stereo not drawn) [Example 187, 1-(4-(4-bromophenyl)-4-hydroxypiperidin-1-yl)-3-(1-(4-methoxy-2,6-dimethylphenylsulfonyl)pyrrolidin-3-yloxy)propan-1-one] | 99.9
COc1cc(C)c(S(=O)(=O)N2CCC(OCCC(=O)N3CCC(O)(c4ccccc4)CC3)C2)c(C)c1 (stereo not drawn) [Example 188, 1-(4-hydroxy-4-phenylpiperidin-1-yl)-3-(1-(4-methoxy-2,6-dimethylphenylsulfonyl)pyrrolidin-3-yloxy)propan-1-one] | 52.7
COc1cc(C)c(S(=O)(=O)N2CCC(OCCC(=O)N3CCC(O)(Cc4ccccc4)CC3)C2)c(C)c1 (stereo not drawn) [Example 189, 1-(4-benzyl-4-hydroxypiperidin-1-yl)-3-(1-(4-methoxy-2,6-dimethylphenylsulfonyl)pyrrolidin-3-yloxy)propan-1-one] | 54.2
COc1cc(C)c(S(=O)(=O)N2CCC(OCCC(=O)N3CCC(O)(c4cccc(C(F)(F)F)c4)CC3)C2)c(C)c1 (stereo not drawn) [Example 190, 1-(4-hydroxy-4-(3-(trifluoromethyl)phenyl)piperidin-1-yl)-3-(1-(4-methoxy-2,6-dimethylphenylsulfonyl)pyrrolidin-3-yloxy)propan-1-one] | 103
